Measured values from publication PMC6407917, “Identification of GSK3186899/DDD853651 as a Preclinical Development Candidate for the Treatment of Visceral Leishmaniasis” (Journal of Medicinal Chemistry, 2018).

Legend:
Assay in all cases: biochemical
Design in all cases: species or system HEK293/K-562/placenta mixed human extract; Kinobeads chemoproteomic competition binding, quantified by TMT LC-MS/MS, dose response up to 20 uM
[1] = target: CDC42BPG (Homo sapiens, UniProt Q6DT37)
[2] = target: NEK3 (Homo sapiens, UniProt P51956)
Chain of NEK3 (P51956 whole entry): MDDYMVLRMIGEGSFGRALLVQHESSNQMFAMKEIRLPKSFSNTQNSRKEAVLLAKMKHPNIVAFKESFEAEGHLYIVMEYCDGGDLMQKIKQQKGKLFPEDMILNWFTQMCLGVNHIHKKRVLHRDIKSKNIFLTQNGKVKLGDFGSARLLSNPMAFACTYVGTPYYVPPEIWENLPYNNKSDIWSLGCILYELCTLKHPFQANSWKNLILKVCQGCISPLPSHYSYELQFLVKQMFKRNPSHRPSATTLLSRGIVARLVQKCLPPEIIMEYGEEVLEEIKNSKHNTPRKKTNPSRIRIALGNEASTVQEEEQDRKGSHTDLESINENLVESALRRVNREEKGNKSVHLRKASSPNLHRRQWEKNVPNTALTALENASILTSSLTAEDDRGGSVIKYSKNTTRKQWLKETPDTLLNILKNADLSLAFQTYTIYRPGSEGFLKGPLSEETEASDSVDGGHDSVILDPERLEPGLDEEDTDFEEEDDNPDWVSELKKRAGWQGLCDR

[3] = target: CDC37 (Homo sapiens, UniProt Q16543)
Chain of CDC37 (Q16543 whole entry): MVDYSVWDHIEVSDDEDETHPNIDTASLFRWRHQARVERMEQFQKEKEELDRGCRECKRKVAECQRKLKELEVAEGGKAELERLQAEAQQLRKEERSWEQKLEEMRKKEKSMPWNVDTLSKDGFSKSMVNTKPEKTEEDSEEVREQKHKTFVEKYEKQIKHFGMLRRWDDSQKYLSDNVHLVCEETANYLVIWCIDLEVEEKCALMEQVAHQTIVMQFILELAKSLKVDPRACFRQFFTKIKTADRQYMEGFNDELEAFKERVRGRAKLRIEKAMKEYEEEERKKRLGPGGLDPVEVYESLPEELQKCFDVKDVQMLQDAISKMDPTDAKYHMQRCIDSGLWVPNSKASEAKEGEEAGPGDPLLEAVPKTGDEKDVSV

[4] = target: MAPK7 (Homo sapiens, UniProt Q13164)
[5] = target: mTOR (Homo sapiens, UniProt P42345)
[6] = target: CDC7 (Homo sapiens, UniProt O00311)
[7] = target: FES (Homo sapiens, UniProt P07332)
[8] = target: ERN1 (Homo sapiens, UniProt O75460)
[9] = target: MAP4K5 (Homo sapiens, UniProt Q9Y4K4)
Chain of MAP4K5 (Q9Y4K4 whole entry): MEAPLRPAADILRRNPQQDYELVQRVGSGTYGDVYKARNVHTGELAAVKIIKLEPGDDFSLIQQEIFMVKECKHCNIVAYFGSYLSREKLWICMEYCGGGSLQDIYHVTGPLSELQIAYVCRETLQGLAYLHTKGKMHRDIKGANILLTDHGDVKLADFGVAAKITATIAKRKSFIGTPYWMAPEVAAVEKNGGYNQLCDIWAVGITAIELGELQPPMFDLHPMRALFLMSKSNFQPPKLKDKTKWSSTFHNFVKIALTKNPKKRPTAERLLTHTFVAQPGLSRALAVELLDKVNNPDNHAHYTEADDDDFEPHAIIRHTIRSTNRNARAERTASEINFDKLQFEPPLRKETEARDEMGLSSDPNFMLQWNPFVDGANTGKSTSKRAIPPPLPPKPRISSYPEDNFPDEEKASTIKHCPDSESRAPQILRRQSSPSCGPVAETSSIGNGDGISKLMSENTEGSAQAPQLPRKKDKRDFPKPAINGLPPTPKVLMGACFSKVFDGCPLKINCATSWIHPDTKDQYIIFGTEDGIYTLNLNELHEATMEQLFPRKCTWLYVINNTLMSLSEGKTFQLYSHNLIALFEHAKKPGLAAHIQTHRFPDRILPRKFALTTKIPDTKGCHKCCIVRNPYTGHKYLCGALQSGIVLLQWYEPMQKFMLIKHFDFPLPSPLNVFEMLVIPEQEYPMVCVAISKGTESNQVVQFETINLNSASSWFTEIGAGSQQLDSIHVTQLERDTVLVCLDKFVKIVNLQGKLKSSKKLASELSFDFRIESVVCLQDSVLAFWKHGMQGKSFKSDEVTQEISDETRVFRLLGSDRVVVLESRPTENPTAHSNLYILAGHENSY

[10] = target: CSNK2A2 (Homo sapiens, UniProt P19784)
[11] = target: PAK4 (Homo sapiens, UniProt O96013)
Chain of PAK4 (O96013 whole entry): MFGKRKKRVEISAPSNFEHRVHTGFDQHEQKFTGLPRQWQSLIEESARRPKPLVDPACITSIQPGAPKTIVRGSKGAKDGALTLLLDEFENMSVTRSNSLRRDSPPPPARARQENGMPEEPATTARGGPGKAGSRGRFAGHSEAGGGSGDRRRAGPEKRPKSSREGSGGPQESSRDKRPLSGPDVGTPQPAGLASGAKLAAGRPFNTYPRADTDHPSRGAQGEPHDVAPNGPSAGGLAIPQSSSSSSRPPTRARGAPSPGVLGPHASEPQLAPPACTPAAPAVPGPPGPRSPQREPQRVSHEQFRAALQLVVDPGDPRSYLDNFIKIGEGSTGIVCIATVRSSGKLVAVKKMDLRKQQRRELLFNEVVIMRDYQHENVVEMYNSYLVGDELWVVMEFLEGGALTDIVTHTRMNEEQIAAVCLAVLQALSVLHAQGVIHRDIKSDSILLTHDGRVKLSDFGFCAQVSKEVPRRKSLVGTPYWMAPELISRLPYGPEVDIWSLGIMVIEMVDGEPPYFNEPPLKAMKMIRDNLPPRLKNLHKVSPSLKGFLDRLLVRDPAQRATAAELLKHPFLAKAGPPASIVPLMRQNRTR

[12] = target: PRKAB2 (Homo sapiens, UniProt O43741)
Chain of PRKAB2 (O43741 whole entry): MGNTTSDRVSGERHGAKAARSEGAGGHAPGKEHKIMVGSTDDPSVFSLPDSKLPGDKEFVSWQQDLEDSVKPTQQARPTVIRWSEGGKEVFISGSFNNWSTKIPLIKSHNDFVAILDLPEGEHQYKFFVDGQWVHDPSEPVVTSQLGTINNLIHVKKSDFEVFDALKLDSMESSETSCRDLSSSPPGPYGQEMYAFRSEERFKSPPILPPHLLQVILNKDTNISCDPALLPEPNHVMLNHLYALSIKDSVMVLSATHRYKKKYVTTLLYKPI

[13] = target: NEK9 (Homo sapiens, UniProt Q8TD19)
Chain of NEK9 (Q8TD19 whole entry): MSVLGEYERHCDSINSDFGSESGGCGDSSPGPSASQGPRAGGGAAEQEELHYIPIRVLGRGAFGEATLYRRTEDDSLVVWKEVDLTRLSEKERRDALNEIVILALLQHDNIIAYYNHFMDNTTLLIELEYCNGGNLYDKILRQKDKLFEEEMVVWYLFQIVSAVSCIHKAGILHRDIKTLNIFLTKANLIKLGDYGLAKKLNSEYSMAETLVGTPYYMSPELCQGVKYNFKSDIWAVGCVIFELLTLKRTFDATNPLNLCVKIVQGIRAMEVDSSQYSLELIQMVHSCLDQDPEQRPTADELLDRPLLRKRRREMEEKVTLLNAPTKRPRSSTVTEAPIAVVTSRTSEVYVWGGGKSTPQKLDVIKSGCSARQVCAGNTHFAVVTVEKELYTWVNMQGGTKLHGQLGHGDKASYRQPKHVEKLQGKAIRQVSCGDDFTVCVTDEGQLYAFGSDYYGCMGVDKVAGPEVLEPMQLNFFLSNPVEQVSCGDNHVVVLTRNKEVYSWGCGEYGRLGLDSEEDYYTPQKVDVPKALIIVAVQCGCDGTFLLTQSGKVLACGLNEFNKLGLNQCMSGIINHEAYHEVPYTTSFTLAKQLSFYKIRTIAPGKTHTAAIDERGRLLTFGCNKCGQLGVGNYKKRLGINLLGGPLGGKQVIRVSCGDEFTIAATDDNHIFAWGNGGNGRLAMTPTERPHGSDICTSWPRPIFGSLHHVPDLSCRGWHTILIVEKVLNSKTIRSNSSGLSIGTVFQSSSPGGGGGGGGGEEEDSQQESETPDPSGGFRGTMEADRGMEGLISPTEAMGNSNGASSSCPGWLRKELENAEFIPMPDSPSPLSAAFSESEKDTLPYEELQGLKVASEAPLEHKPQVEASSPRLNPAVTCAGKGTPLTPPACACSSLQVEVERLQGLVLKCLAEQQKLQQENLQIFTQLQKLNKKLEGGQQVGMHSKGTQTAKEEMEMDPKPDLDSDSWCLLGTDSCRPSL

[14] = target: CDK2 (Homo sapiens, UniProt P24941)
[15] = target: TP53RK (Homo sapiens, UniProt Q96S44)
Chain of TP53RK (Q96S44 whole entry): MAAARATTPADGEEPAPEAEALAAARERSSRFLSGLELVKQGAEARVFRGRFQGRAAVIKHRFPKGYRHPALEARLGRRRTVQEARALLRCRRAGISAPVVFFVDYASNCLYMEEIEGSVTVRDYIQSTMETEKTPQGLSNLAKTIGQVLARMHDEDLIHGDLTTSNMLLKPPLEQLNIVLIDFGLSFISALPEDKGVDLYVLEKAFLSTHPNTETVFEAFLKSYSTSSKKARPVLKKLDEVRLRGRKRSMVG

[16] = target: CDK10 (Homo sapiens, UniProt Q15131)
[17] = target: MAP2K4 (Homo sapiens, UniProt P45985)
Chain of MAP2K4 (P45985 whole entry): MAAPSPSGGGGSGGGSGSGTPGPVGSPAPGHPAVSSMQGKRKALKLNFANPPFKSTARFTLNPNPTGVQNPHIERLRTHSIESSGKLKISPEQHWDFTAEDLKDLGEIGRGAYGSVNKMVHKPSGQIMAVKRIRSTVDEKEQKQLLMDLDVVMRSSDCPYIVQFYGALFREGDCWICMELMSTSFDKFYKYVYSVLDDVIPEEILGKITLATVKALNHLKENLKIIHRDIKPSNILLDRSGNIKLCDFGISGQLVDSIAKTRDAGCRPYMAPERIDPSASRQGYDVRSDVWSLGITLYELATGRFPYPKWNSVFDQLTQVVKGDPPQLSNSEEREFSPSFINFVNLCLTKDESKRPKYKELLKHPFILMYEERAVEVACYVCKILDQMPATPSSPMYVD

[18] = target: SNRK (Homo sapiens, UniProt Q9NRH2)
[19] = target: SGK3 (Homo sapiens, UniProt Q96BR1)
[20] = target: STK17B (Homo sapiens, UniProt O94768)
[21] = target: RPS6KA2 (Homo sapiens, UniProt Q15349)
Chain of RPS6KA2 (Q15349 whole entry): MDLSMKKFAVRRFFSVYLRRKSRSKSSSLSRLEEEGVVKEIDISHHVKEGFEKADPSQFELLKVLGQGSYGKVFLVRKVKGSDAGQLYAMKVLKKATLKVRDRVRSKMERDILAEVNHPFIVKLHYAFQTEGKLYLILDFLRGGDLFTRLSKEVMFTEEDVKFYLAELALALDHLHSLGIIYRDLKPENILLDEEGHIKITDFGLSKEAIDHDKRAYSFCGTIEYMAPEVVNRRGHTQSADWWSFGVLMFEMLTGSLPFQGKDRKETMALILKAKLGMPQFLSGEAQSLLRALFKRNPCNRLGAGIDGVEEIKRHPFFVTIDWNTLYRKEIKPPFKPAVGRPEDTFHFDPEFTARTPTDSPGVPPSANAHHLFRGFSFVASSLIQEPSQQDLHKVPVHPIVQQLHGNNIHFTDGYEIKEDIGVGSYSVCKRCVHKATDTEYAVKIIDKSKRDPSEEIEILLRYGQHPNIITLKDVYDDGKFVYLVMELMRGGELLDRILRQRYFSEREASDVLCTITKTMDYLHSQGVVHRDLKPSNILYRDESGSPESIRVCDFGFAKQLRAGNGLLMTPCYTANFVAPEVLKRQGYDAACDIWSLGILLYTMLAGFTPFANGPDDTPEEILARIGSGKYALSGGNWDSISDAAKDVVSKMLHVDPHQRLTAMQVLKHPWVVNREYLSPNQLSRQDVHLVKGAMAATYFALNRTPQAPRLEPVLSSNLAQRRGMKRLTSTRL

## COc1ccccc1-c1n[nH]c2nc(N[C@H]3CC[C@H](NS(=O)(=O)CCC(F)(F)F)CC3)nc(OC)c12 [compound 31, 3,3,3-Trifluoro-N-(trans-4-((4-methoxy-3-(2-methoxyphenyl)-1H-pyrazolo[3,4-d]pyrimidin-6-yl)amino)cyclohexyl)propane-1-sulfonamide]
[1]
  IC50: ≥ 20 µM
[2]
  IC50: ≥ 20 µM
[3]
  IC50: ≥ 20 µM
[4]
  IC50: ≥ 20 µM
[5]
  IC50: ≥ 20 µM
[6]
  IC50: ≥ 20 µM
[7]
  IC50: ≥ 20 µM
[8]
  IC50: ≥ 20 µM
[9]
  IC50: ≥ 20 µM
[10]
  IC50: ≥ 20 µM
[11]
  IC50: ≥ 20 µM
[12]
  IC50: ≥ 20 µM
[13]
  IC50: ≥ 20 µM
[14]
  IC50: 1.2 µM
[15]
  IC50: ≥ 20 µM
[16]
  IC50: 2.6 µM
[17]
  IC50: ≥ 20 µM
[18]
  IC50: ≥ 20 µM
[19]
  IC50: ≥ 20 µM
[20]
  IC50: ≥ 20 µM
[21]
  IC50: ≥ 20 µM
